Measurements: US12053470B2, “Pharmaceutical combination comprising an ALK inhibitor and a SHP2 inhibitor” (Novartis AG, priority 2017, dated 2024)

Legend:
[1] = tested on: Ceritinib resistant MGH049 cells; assay: Cell colony formation assay with ceritinib resistant MGH049 cells;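 on all read-outs here: tested compounds are SHP2 inhibitors given alone, colonies fixed and crystal violet stained, DMSO reference taken as the mean of six readings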; assay type: cell-based, human; settings: 7 days; for activity at 3 µM: Homo sapiens, 168 h, compound of Table 1 (3 μM) alone, normalized to DMSO without compound = 100, read-out: Normalized Crystal Violet abs. (590 nm) DMSO
[2] = tested on: MGH049, MGH045-2A and MGH073-2B cells; assay: Cell colony formation assay (crystal violet, FIG. 1); assay type: cell-based, human; settings: Compound No. 1 5 μM, 14 days
Source text: FIG. 1. […]. For each cell line, all dishes were fixed, stained and photographed at the same time.
The MGH049, MGH045-2A and MGH073-2B cell lines were established at Massachusetts General Hospital. MGH049 is described in Friboulet L, et al. Cancer Discov. 2014 June; 4(6):662-73. MGH045 is described in Friboulet L, et al. Cancer Discov. 2014 June; 4(6):662-73). MGH045-1A, is described in Science, 2014, December 19; 346(6216):1480-1).
All human lung cancer samples were obtained from patients with informed consent, and all procedures were carried out under an Institutional Review Board (IRB)-approved protocol. The cell lines were cultured in DMEM (ATCC) supplemented with 10% FBS, or in RPMI (ATCC) supplemented with 15% FBS.
Cell colony formation assays were used to assess cell viability and proliferation after compound treatments. Cells were plated into 6-well tissue culture plates (6×10^5 cells/well) in a total volume of 2 mL. After 24 hours, compounds were added to the plates. At the end points of the assays, cells were fixed, stained with crystal violet and photographed.
[…]. […] […].

[3] = target: SHP2 (Homo sapiens (Human), UniProt Q06124); assay: SHP2 allosteric inhibition assay (DiFMUP prompt fluorescence); assay type: biochemical

Row | IC50 [3] | SMILES | effect on cell growth as a single agent ([1]; 3 μM, ceritinib-resistant cells) | activity at 3 µM [1] | effect on cell growth as a single agent [2]
1 |  | CC1(N)CCN(c2cnc(-c3cccc(Cl)c3Cl)c(N)n2)CC1 [Compound No. 1, 6-(4-amino-4-methylpiperidin-1-yl)-3-(2,3-dichlorophenyl)pyrazin-2-amine] | no effect on cell growth | 117% | no effect on cell growth
2 | 155 nM | Nc1nc(N2CCC3(CCCN3)CC2)cnc1-c1cccc(Cl)c1Cl [compound 8, 3-(2,3-dichlorophenyl)-6-(1,8-diazaspiro[4.5]decan-8-yl)pyrazin-2-amine] |  | 99.9% | 
3 | 73 nM | Nc1nc(N2CCC3(CCC[C@H]3N)CC2)cnc1-c1cccc(Cl)c1Cl [compound 9, (R)-8-(6-amino-5-(2,3-dichlorophenyl)pyrazin-2-yl)-8-azaspiro[4.5]decan-1-amine] |  | 118% | 
4 | 25 nM | Nc1nc(N2CCC3(CC2)COC[C@H]3N)cnc1Sc1cccnc1C(F)(F)F [compound 10, (S)-8-(6-amino-5-((2-(trifluoromethyl)pyridin-3-yl)thio)pyrazin-2-yl)-2-oxa-8-azaspiro[4.5]decan-4-amine] |  |  | 
5 | 9 nM | CC1CCC2(CCN(c3cnc(Sc4ccnc(N)c4Cl)c(N)n3)CC2)[C@@H]1N (stereo partly drawn) [compound 15, (1R)-8-(6-amino-5-((2-amino-3-chloropyridin-4-yl)thio)pyrazin-2-yl)-2-methyl-8-azaspiro[4.5]decan-1-amine] |  | 31% | 
6 | 9 nM | CC[C@@H]1OCC2(CCN(c3cnc(Sc4ccnc(N)c4Cl)c(N)n3)CC2)[C@@H]1N [compound 17, (3S,4S)-8-(6-amino-5-((2-amino-3-chloropyridin-4-yl)thio)pyrazin-2-yl)-3-ethyl-2-oxa-8-azaspiro[4.5]decan-4-amine] |  | 29.4% | 
7 | 4.5 nM | Nc1nccc(Sc2cnc(N3CCC4(CC3)C[C@@H](O)C[C@H]4N)cn2)c1Cl [compound 18, (2R,4R)-4-amino-8-(5-((2-amino-3-chloropyridin-4-yl)thio)pyrazin-2-yl)-8-azaspiro[4.5]decan-2-ol] |  | 32.3% | 
8 | 6 nM | C[C@H]1C[C@@H](N)C2(CCN(c3cnc(Sc4ccnc(N)c4Cl)cn3)CC2)C1 [compound 19, (1R,3R)-8-(5-((2-amino-3-chloropyridin-4-yl)thio)pyrazin-2-yl)-3-methyl-8-azaspiro[4.5]decan-1-amine] |  | 96.1% | 
9 | 6 nM | CC1CCC2(CCN(c3cnc(Sc4ccnc(N)c4Cl)cn3)CC2)[C@@H]1N (stereo partly drawn) [compound 20, (1R)-8-(5-((2-amino-3-chloropyridin-4-yl)thio)pyrazin-2-yl)-2-methyl-8-azaspiro[4.5]decan-1-amine] |  | 54.7% | 
10 | 14 nM | C[C@@H]1OCC2(CCN(c3cnc(Sc4cc(N)nc(Cl)c4Cl)cn3)CC2)[C@@H]1N [compound 21, (3S,4S)-8-(5-((6-amino-2,3-dichloropyridin-4-yl)thio)pyrazin-2-yl)-3-methyl-2-oxa-8-azaspiro[4.5]decan-4-amine] |  | 48.2% | 
11 | 8 nM | C[C@@H]1OCC2(CCN(c3cnc(Sc4ccnc(N)c4Cl)cn3)CC2)[C@@H]1N [compound 22, (3S,4S)-8-(5-((2-amino-3-chloropyridin-4-yl)thio)pyrazin-2-yl)-3-methyl-2-oxa-8-azaspiro[4.5]decan-4-amine] |  | 19.5% | 
12 | 6 nM | Nc1nccc(Sc2cnc(N3CCC4(CC3)COC[C@H]4N)cn2)c1Cl [compound 24, (S)-8-(5-((2-amino-3-chloropyridin-4-yl)thio)pyrazin-2-yl)-2-oxa-8-azaspiro[4.5]decan-4-amine] |  | 43.5% | 
13 | 26 nM | Cn1c(N2CCC3(CCC[C@H]3N)CC2)nc2n[nH]c(-c3cccc(Cl)c3Cl)c2c1=O [compound 37, (R)-6-(1-amino-8-azaspiro[4.5]decan-8-yl)-3-(2,3-dichlorophenyl)-5-methyl-2,5-dihydro-4H-pyrazolo[3,4-d]pyrimidin-4-one] |  | 45% | 
14 | 4 nM | CC1(N)CCN(c2cnc(Sc3cccc(NC(=O)C4=C(O)CN(c5ccccc5)C4=O)c3Cl)c(N)n2)CC1 [compound 46, N-(3-((3-amino-5-(4-amino-4-methylpiperidin-1-yl)pyrazin-2-yl)thio)-2-chlorophenyl)-4-hydroxy-2-oxo-1-phenyl-2,5-dihydro-1H-pyrrole-3-carboxamide] |  | 70.9% | 
15 | 6 nM | Nc1nc(N2CCC(N)(CF)CC2)cnc1Sc1cccc(NC(=O)c2c(O)nc3n(c2=O)CCCC3)c1Cl [compound 51, N-(3-((3-amino-5-(4-amino-4-(fluoromethyl)piperidin-1-yl)pyrazin-2-yl)thio)-2-chlorophenyl)-2-hydroxy-4-oxo-6,7,8,9-tetrahydro-4H-pyrido[1,2-a]pyrimidine-3-carboxamide] |  | 94% | 
16 | 5 nM | Nc1nc(N2CCC(N)(CF)CC2)cnc1Sc1cccc(NC(=O)c2c(O)nc3ccccn3c2=O)c1Cl [compound 52, N-(3-((3-amino-5-(4-amino-4-(fluoromethyl)piperidin-1-yl)pyrazin-2-yl)thio)-2-chlorophenyl)-2-hydroxy-4-oxo-4H-pyrido[1,2-a]pyrimidine-3-carboxamide] |  | 67.9% | 
17 |  | Nc1nc(N2CCC3(CC2)COC[C@H]3N)cnc1Sc1cccc(NC(=O)c2c(O)nc3n(c2=O)CCCC3)c1Cl [compound 53, (S)-N-(3-((3-amino-5-(4-amino-2-oxa-8-azaspiro[4.5]decan-8-yl)pyrazin-2-yl)thio)-2-chlorophenyl)-2-hydroxy-4-oxo-6,7,8,9-tetrahydro-4H-pyrido[1,2-a]pyrimidine-3-carboxamide] |  | 46.5% | 
18 |  | CN1C(=O)C(C(=O)Nc2cccc(Sc3ncc(N4CCC(C)(N)CC4)nc3N)c2Cl)=C(O)C1Cc1ccccc1 (stereo not drawn) [compound 54, N-(3-((3-amino-5-(4-amino-4-methylpiperidin-1-yl)pyrazin-2-yl)thio)-2-chlorophenyl)-5-benzyl-4-hydroxy-1-methyl-2-oxo-2,5-dihydro-1H-pyrrole-3-carboxamide] |  | 132% | 

Row | SMILES | IC50 [3] | effect on cell growth as a single agent ([1]; 3 μM, ceritinib-resistant cells) | activity at 3 µM [1] | effect on cell growth as a single agent [2]
19 | C[C@@H]1OCC2(CCN(c3cnc(-c4cccc(Cl)c4Cl)c(N)n3)CC2)[C@@H]1N [compound 7, (3S,4S)-8-(6-amino-5-(2,3-dichlorophenyl)pyrazin-2-yl)-3-methyl-2-oxa-8-azaspiro[4.5]decan-4-amine] | 39 nM |  | 98.2% | 
